Laboratory results as given in ChEMBL document CHEMBL1201862, “PubChem BioAssay data set” (2004).
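Compound exposure: 48 hours, 5 concentrations, 96-well plates. Here, GI50 denotes the concentration required for 50% inhibition of growth.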 Active and inactive are the calls of the source. No stated cut-off is given here; in the data, active = GI50 up to about 1.1 µM and inactive = higher.

Columns and labels:
Assay in all cases: NCI anticancer screen, dose series, 48 h
[1] = tested on: NCI-H522
[2] = tested on: Hs-578T
[3] = tested on: KM12
[4] = tested on: SK-MEL-5
[5] = tested on: HOP-92
[6] = tested on: MCF7
[7] = tested on: HCC 2998
[8] = tested on: RXF 393
[9] = tested on: SN12C
[10] = tested on: PC-3
[11] = tested on: SF-295
[12] = tested on: ACHN
[13] = tested on: UO-31
[14] = tested on: SF-539
[15] = tested on: CAKI-1
[16] = tested on: CCRF-CEM
[17] = tested on: NCI-H460
[18] = tested on: TK-10
[19] = tested on: EKVX
[20] = tested on: NCI-H23
[21] = tested on: OVCAR-8
[22] = tested on: RPMI-8226
[23] = tested on: HCT-116
[24] = tested on: UACC-62
[25] = tested on: SF-268
[26] = tested on: OVCAR-4
[27] = tested on: IGROV-1
[28] = tested on: COLO 205
[29] = tested on: UACC-257
[30] = tested on: SNB-75
[31] = tested on: T47D
[32] = tested on: SK-MEL-28
[33] = tested on: Malme-3M
[34] = tested on: NCI/ADR-RES
[35] = tested on: MDA-MB-435
[36] = tested on: U-251
[37] = tested on: 786-0
[38] = tested on: NCI-H226
[39] = tested on: SR
[40] = tested on: A498
[41] = tested on: MDA-N
[42] = tested on: SW-620
[43] = tested on: HT-29
[44] = tested on: M14
[45] = tested on: MOLT-4
[46] = tested on: K562
[47] = tested on: DU-145
[48] = tested on: HCT-15
[49] = tested on: A549
[50] = tested on: HOP-62
[51] = tested on: MDA-MB-231
[52] = tested on: SK-OV-3
[53] = tested on: LOX IMVI
[54] = tested on: OVCAR-3
[55] = tested on: SNB-19
[56] = tested on: SK-MEL-2
[57] = tested on: OVCAR-5
[58] = tested on: BT-549
[59] = tested on: HL-60

CSc1n[nH]c2[nH]nc(C)c12
GI50 [1]: > 100 µM (inactive) | GI50 [2]: > 100 µM (inactive) | GI50 [3]: > 100 µM (inactive) | GI50 [4]: > 100 µM (inactive) | GI50 [5]: > 100 µM (inactive) | GI50 [6]: > 100 µM (inactive) | GI50 [7]: > 100 µM (inactive) | GI50 [8]: > 100 µM (inactive) | GI50 [9]: > 100 µM (inactive) | GI50 [10]: > 100 µM (inactive) | GI50 [11]: > 100 µM (inactive) | GI50 [12]: > 100 µM (inactive) | GI50 [13]: > 100 µM (inactive) | GI50 [14]: > 100 µM (inactive) | GI50 [15]: > 100 µM (inactive) | GI50 [16]: > 100 µM (inactive) | GI50 [17]: > 100 µM (inactive) | GI50 [18]: > 100 µM (inactive) | GI50 [19]: > 100 µM (inactive) | GI50 [20]: > 100 µM (inactive) | GI50 [21]: > 100 µM (inactive) | GI50 [22]: > 100 µM (inactive) | GI50 [23]: > 100 µM (inactive) | GI50 [24]: > 100 µM (inactive) | GI50 [25]: > 100 µM (inactive) | GI50 [26]: > 100 µM (inactive) | GI50 [27]: > 100 µM (inactive) | GI50 [28]: > 100 µM (inactive) | GI50 [29]: > 100 µM (inactive) | GI50 [30]: > 100 µM (inactive) | GI50 [31]: > 100 µM (inactive) | GI50 [32]: > 100 µM (inactive) | GI50 [33]: > 100 µM (inactive) | GI50 [34]: > 100 µM (inactive) | GI50 [35]: > 100 µM (inactive) | GI50 [36]: > 100 µM (inactive) | GI50 [37]: > 100 µM (inactive) | GI50 [38]: > 100 µM (inactive) | GI50 [39]: 5.22 µM (inactive) | GI50 [40]: > 100 µM (inactive) | GI50 [41]: > 100 µM (inactive) | GI50 [42]: > 100 µM (inactive) | GI50 [43]: > 100 µM (inactive) | GI50 [44]: > 100 µM (inactive) | GI50 [45]: 8.53 µM (inactive) | GI50 [46]: > 74 µM (inactive) | GI50 [47]: > 100 µM (inactive) | GI50 [48]: > 100 µM | GI50 [49]: > 100 µM (inactive) | GI50 [50]: > 100 µM (inactive) | GI50 [51]: > 100 µM (inactive) | GI50 [52]: > 100 µM (inactive) | GI50 [53]: > 100 µM (inactive) | GI50 [54]: > 100 µM (inactive) | GI50 [55]: > 100 µM (inactive) | GI50 [56]: > 100 µM (inactive) | GI50 [57]: > 100 µM (inactive) | GI50 [58]: > 100 µM (inactive)

CCCC#CCOC(=O)c1cc([N+](=O)[O-])cc([N+](=O)[O-])c1
GI50 [1]: 43.4 µM (inactive) | GI50 [2]: > 100 µM (inactive) | GI50 [3]: > 100 µM (inactive) | GI50 [4]: 52 µM (inactive) | GI50 [5]: > 100 µM (inactive) | GI50 [6]: > 100 µM (inactive) | GI50 [7]: > 100 µM (inactive) | GI50 [9]: > 100 µM (inactive) | GI50 [10]: > 100 µM (inactive) | GI50 [11]: > 100 µM (inactive) | GI50 [12]: > 100 µM (inactive) | GI50 [13]: > 100 µM (inactive) | GI50 [14]: > 100 µM (inactive) | GI50 [15]: > 100 µM (inactive) | GI50 [16]: > 100 µM (inactive) | GI50 [17]: > 100 µM (inactive) | GI50 [18]: > 100 µM (inactive) | GI50 [19]: > 100 µM (inactive) | GI50 [20]: > 100 µM (inactive) | GI50 [21]: > 100 µM (inactive) | GI50 [22]: > 100 µM (inactive) | GI50 [23]: > 100 µM (inactive) | GI50 [24]: > 100 µM (inactive) | GI50 [25]: > 100 µM (inactive) | GI50 [27]: > 100 µM (inactive) | GI50 [28]: > 100 µM (inactive) | GI50 [29]: > 100 µM (inactive) | GI50 [30]: > 100 µM (inactive) | GI50 [31]: > 100 µM (inactive) | GI50 [32]: > 100 µM (inactive) | GI50 [33]: 19.9 µM (inactive) | GI50 [34]: > 100 µM (inactive) | GI50 [35]: 41.4 µM (inactive) | GI50 [36]: > 100 µM (inactive) | GI50 [37]: > 100 µM (inactive) | GI50 [39]: > 100 µM (inactive) | GI50 [40]: > 100 µM (inactive) | GI50 [41]: 47.3 µM (inactive) | GI50 [42]: > 100 µM (inactive) | GI50 [43]: > 100 µM (inactive) | GI50 [44]: > 100 µM (inactive) | GI50 [45]: > 100 µM (inactive) | GI50 [46]: > 100 µM (inactive) | GI50 [47]: > 100 µM (inactive) | GI50 [48]: > 100 µM | GI50 [49]: > 100 µM (inactive) | GI50 [50]: > 100 µM (inactive) | GI50 [51]: > 100 µM (inactive) | GI50 [52]: > 100 µM (inactive) | GI50 [53]: > 100 µM (inactive) | GI50 [59]: > 100 µM (inactive) | GI50 [54]: > 100 µM (inactive) | GI50 [55]: > 100 µM (inactive) | GI50 [56]: > 100 µM (inactive) | GI50 [57]: > 100 µM (inactive) | GI50 [58]: > 100 µM (inactive)
